Test results as given in US11918693B2, “Ibuprofen and acetaminophen tablet” (GlaxoSmithKline Consumer Healthcare Holdings (US) LLC, priority 2019, dated 2024).

System: patients with moderate-severe pain after ≥3 third molar extractions
Experiment: Study 2: phase 3 single-dose dental pain study, FDC vs IBU 250 mg, APAP 650 mg and placebo
Format: in vivo, human
Details: for Dizziness, treatment-emergent adverse event, n (%) / Flushing, treatment-emergent adverse event, n (%) / Headache, treatment-emergent adverse event, n (%) / Nausea, treatment-emergent adverse event, n (%) / Vomiting, treatment-emergent adverse event, n (%): Single-Dose Study 2; for SPID[11]0-8, Tx Diff vs. placebo: first treatment − second treatment, IBU 250 mg, APAP 650 mg; for Number (%) of patients with treatment failure: 12-hour study
Method: Two Studies were performed, both single-center, phase 3, randomized, double-blind, parallel-group, placebo-controlled studies conducted in the United States. Study 2 was a single-dose study whereas Study 3 was a multiple-dose study. The studies were performed in compliance with the ethical principles originating in or derived from the Declaration of Helsinki and in compliance with all International Council for Harmonization Good Clinical Practice Guidelines, as well as all local regulatory requirements.
In Study 2, patients experiencing moderate-severe pain after ≥3 third molar extractions, with at least 2 with partial or complete mandibular impaction, were randomized 3:3:3:1 to receive single-dose FDC IBU/APAP 250 mg/500 mg (administered as 2 tablets of IBU 125 mg/APAP 250 mg), IBU 250 mg alone, APAP 650 mg alone, or placebo under double-blind conditions. Patients self-assessed pain severity and pain relief on site for 12 hours following administration of study medication.
Rescue medication consisted of tramadol hydrochloride 50-100 mg or codeine sulfate 15-60 mg, both immediate release, and patients could administer additional doses every 4-6 hours as needed up to the maximum labeled daily dose. Patients who took rescue medication remained at the study site for the full duration of each study (12 or 48 hours, respectively) and continued to perform assessments.
In both studies 2 and 3, patients were healthy adult males or females aged 18-40 years inclusive, who had undergone surgical extraction of ≥3 third molar teeth (≥2 must have been partial or complete bony mandibular impactions). Other key entry criteria included moderate-severe pain confirmed by a rating of ≥50 mm on a 100-mm visual analog pain severity rating (PSR) scale within approximately 5 hours after completion of surgery and use of only the following preoperative medications/anesthetics: topical benzocaine, a short-acting parenteral local anesthetic (mepivacaine or lidocaine) with or -without a vasoconstrictor and/or nitrous oxide, and no contraindications to the study or rescue medications.
In Study 2, enrolled patients received one of 4 treatments: 1) placebo (administered as 2 tablets); 2) FDC IBU/APAP 250 mg/500 mg (administered as 2 caplets of IBU 125 mg/APAP 250 mg); 3) IBU 250 mg (administered as 2 caplets of IBU 125 mg); or APAP 650 mg (administered as 2 tablets of APAP 325 mg).
At baseline, patients provided self-ratings of pain severity using categorical and numerical PSR scales. The categorical PSR used a 4-point scale (none, mild, moderate, severe), with each category assigned a number from 0 (none) to 3 (severe). Patients reporting at least moderate pain on the categorical PSR at baseline completed a 100-mm visual analog scale. A score of at least 50 mm confirmed eligibility for the study. Additionally, an 11-point (0-10; 0=none to 10=worst possible pain) numerical PSR scale was also used to assess pain.
Once study treatment was administered, the categorical PSR, numerical PSR, and a 5-point categorical pain relief rating scale (0=none, 1=a little, 2=some, 3=a lot, 4=complete) were obtained at predefined assessment times to assess pain and pain relief. In Study 2 (single-dose trial), these assessments were performed at 0.25, 0.5, 1, 1.5, 2, 3, 4, 5, 6, 7, 8, 9, 10, 11, and 12 hours post-treatment. In Study 3 (multiple-dose trial), these assessments were performed at the same time points as in Study 2 up to 12 hours and also at 16, 24, 32, 40, and 48 hours post-treatment Additional evaluations included patient assessments of time to first perceptible pain relief (TFPR), defined as the time that a patient first began to feel any pain-relieving effect whatsoever of the drug and time to meaningful pain relief (TMPR), defined as the time that a patient experienced pain relief that was meaningful to that individual, using the double-stopwatch method, see Mehlisch D R et al., 2010, ibid. […]

[1] = IBU dose 250 mg, APAP dose 650 mg
[2] = Study 2, single oral dose, IBU dose 250 mg, APAP dose 650 mg

Compound	Dizziness, treatment-emergent adverse event, n (%) [1]	Flushing, treatment-emergent adverse event, n (%) [1]	Headache, treatment-emergent adverse event, n (%) [1]	Nausea, treatment-emergent adverse event, n (%) [1]	Vomiting, treatment-emergent adverse event, n (%) [1]	SPID[11]0-8, Tx Diff vs. placebo (Study 2, LSM difference)	SPID[11]0-8, Tx Diff vs. APAP (Study 2, LSM difference, comparator APAP 650 mg, IBU dose 250 mg)	Cumulative proportion of treatment failures after 8 hours [2] [%]	Median duration of pain relief (median time to treatment failure) [2] [h]	Median duration of pain relief (time to treatment failure) [2] [min]	Median time to onset of first perceptible pain relief (TFPR) [2] [min]	Median time to onset of meaningful pain relief (TMPR) [2] [min]	Number (%) of patients with meaningful relief [2]	Number (%) with event, first perceptible pain relief table [2]	SPID[11]0-8, Mean (SD) [2]	SPID[11]0-8, Median [2]	Number (%) of patients with treatment failure [2]
CC(C)Cc1ccc(C(C)C(=O)O)cc1 (centres unmarked) [IBU, 2-(4-isobutylphenyl) propionic acid]	6 (3.4) n (%)	2 (1.1) n (%)	3 (1.7) n (%)	24 (13.7) n (%)	15 (8.6) n (%)	24.42	9.10	33.1	10.1	608.5	24.6	65.9	139 (79.4) n (%)	139 (79.4) n (%)	28.9 (20.5)	30.5	105 (60.0) n (%)
CC(=O)Nc1ccc(O)cc1 [APAP, N-(4-hydroxyphenyl)acetamide]	12 (7.3) n (%)	1 (0.6) n (%)	4 (2.4) n (%)	33 (20.0) n (%)	20 (12.1) n (%)	15.32	–	51.5	–	449.0	24.2	56.6	118 (71.5) n (%)	118 (71.5) n (%)	19.4 (20.0)	16.8	105 (63.6) n (%)
